For one test, the system named is TxB2 synthesis. The experiment in a line: TxB2 synthesis inhibition in vitro in whole blood of normal rats. It counts as cell-based, normal Sprague Dawley rats. To be noted: Rattus norvegicus, read-out: In vitro effect on TxB2 synthesis in normal rats, IC50 (whole blood). As to the method:
(§1) The effects of a representative group of compounds of the invention were evaluated, in comparison with known compounds, on TxB2 synthesis inhibition in vitro in whole blood of normal rats, and on TxA2 antagonism in a binding assay in washed human platelets.
TxB2 Synthesis Inhibition
Blood was withdrawn from the abdominal aorta of normal Sprague Dawley rats (Charles River Italy) under light ether anaesthesia. The blood was immediately divided in portions of 0.5 ml and distributed in glass tubes each containing a concentration of the test compound, or of the reference compounds.
Samples were then allowed to clot for 1 hour at 37° C., centrifuged at 3000 rpm for 10 min, and serum collected and stored at -20° C. until assayed.

A further test concerns the target T1, TXA2 receptor (Homo sapiens, UniProt P21731).
T1 construct: endogenous in cells; host or cells: washed human platelets from blood of healthy volunteers
T1 sequence (P21731 1-343): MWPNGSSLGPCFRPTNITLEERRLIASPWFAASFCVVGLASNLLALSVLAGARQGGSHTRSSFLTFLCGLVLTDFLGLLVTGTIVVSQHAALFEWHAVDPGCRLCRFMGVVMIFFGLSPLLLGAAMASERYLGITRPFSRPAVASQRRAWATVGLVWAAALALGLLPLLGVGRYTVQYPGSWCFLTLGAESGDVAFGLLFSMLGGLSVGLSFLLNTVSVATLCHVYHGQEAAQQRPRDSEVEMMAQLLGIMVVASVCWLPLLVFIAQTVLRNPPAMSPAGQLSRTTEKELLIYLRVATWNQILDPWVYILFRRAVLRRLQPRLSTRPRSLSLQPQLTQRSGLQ
The test is described as follows: Displacement of [^3 H]-SQ 29.548 binding to washed human platelets (TxA2 antagonism). To be noted: for affinity for the receptor: in words, compared with BM 13505 and BM 13177, binding test (washed human platelets); for IC50: washed human platelets, [^3 H]-SQ 29,548 5 nM, 30 min at 25° C., read-out: ^3 H SQ 29548 binding displacement (washed human platelet) IC50. As to the method:
as §1
Displacement of [^3 H]-SQ 29.548 binding to washed human platelets
Blood from healthy volunteers of both sexes who had not taken any medication for at least 10 days was collected into one-tenth volume of acid citrate dextrose containing indomethacin (28 μM). Platelet rich plasma (PRP), obtained by centrifugation of the blood at 200×g for 20 min, was washed twice (1000×g for 10 min). The platelets are then resuspended in Tyrode-Hepes buffer (pH 7.4) to a final concentration of […] and incubated for 0-60 min at 25° with [^3 H]-SQ 29,548 (5 nM). For displacement experiments various concentrations (10^-9 -10^-4 M) of competing ligands were added and incubated for 30 min at 25° C. […] After the incubation, 4 ml of ice-cold TRIS-HCl buffer (10 mM, pH 7.4) was added to each tube and the reaction mixture was immediately filtered by suction through a Whatman GF/C glass filter disc which was washed 2 times with ice-cold TRIS-HCl (4 ml) and counted for radioactivity by a Packard β-counter.
The binding data were analysed by computerized non-linear curve fitting using the Ligand program and expressed as IC50.

Setting [1] is: whole blood of normal rats, clotted 1 hour at 37° C.

The structures appear in SMILES notation. Like-named read-outs stand apart in the source and are kept apart here.

As for `O=C(O)c1ccc(OCCn2ccnc2)cc1` [Dazoxiben], the half-maximal inhibitory concentration (IC50) in the test with TxB2 synthesis (setting [1]) was 1200 nM.

As to `CC(=O)Oc1ccccc1C(=O)O` [ASA, acetylsalicilic acid], the half-inhibitory concentration (IC50) in the test with TxB2 synthesis (1 h) worked out at 31000 nM.

Turning to `O=C(O)CC1CCCc2c(n(Cc3ccc(-n4ccnc4)cc3)c3ccc(F)cc23)C1` (stereo not shown) [FCE 27041, 2-Fluoro-5-[[4-(1H-imidazol-1-yl)phenyl]methyl]-5,6,7,8,9,10-hexahydrocyclohept[b]indole-7-acetic acid], on TXA2 receptor, the “affinity for the receptor” value was “affinity for the receptor greater than those of compounds BM 13505 and BM 13177”; the half-maximal inhibitory concentration (IC50) is 6 nM. In addition, the half-maximal inhibitory concentration (IC50) in the test on TxB2 synthesis (setting [1]) is 198 nM.

`O=C(O)CC1CCCc2c1n(Cc1ccc(-n3ccnc3)cc1)c1ccc(F)cc21` (stereo not shown) [FCE 26643, 6-Fluoro-9-[[4-(1H-imidazol-1-yl)phenyl]methyl]-1,2,3,4-tetrahydrocarbazol-1-yl-acetic acid]: on TXA2 receptor, the “affinity for the receptor” value is “affinity for the receptor greater than those of compounds BM 13505 and BM 13177”; the IC50 was found to be 6.6 nM.
